According to US6921840B1 (The Trustees of the University of Pennsylvania, priority 1999, dated 2005):
Several values for one entry are separate records, joined by “and”; a condition that tells them apart may be missing. Identical values can stand only once. Like-named read-outs stand apart in the source and are kept apart here.

How the values were obtained:
[1] = Partition coefficient octanol/buffer; assay type: physicochemical; conditions: n-octanol and phosphate buffer, pH 7.4
[2] = molecular target: T1, SERT (Rattus norvegicus, UniProt P31652)
Method: At 60 min post i.v. injection, the animals were sacrificed by cardiac excision while under ether anesthesia. The brains were rapidly removed, placed in embedding medium (Tissue Tek, Miles Laboratory, Elkhart, Ind.) and frozen with powdered dry ice. After reaching equilibrium at −20° C. consecutive 20 μm coronal sections were cut on a cryostat microtome (Hacker Instruments, Fairfield, N.J.) thaw-mounted on microscope slides, and air-dried at room temperature. […] The microscale standards were calibrated with tissue mash standards for the value conversion to nCi/mg protein. The exposed film was developed by a Kodak automatic film processor. […] The brain sections of the pretreated rats were processed following the same procedures described above for the normal untreated rats.

[3] = molecular target: T1, SERT; experiment: [125I]IDAM saturation binding to rat frontal cortical membrane homogenates; set-up: The frontal cortex of rat brain were dissected and homogenized in 30 volumes of buffer; from tissue; host or cells: rat frontal cortex membrane homogenates (male Sprague-Dawley rats, control and PCA-lesioned)
Method: The homogenates were centrifuged at 20,000 g for 20 min. The resulting pellets were then re-suspended and recentrifuged. The final pellets were suspended in the same buffer and used for in vitro binding assays.
Binding assays were performed in glass tubes (12×75 mm) with a final volume of 0.5 ml.
Various inhibitors were serially diluted with the buffer containing 0.1% BSA to overcome the stickiness and loss due to dilution. […] Incubation was carried out for 60 min at room temperature and then terminated by separation of bound from free radioligand by filtration through glass fiber filters (Schleicher & Schuell No. 25, Keene, N.H.) presoaked with 1% polyethylenimine. The filters were then washed three times with 3 ml of ice-cold […] Tris buffer and counted in a gamma counter (Packard 5000) with 70% efficiency. To study the effect of […], the homogenates were prepared in a sodium-free 50 mM Tris-HCl/5 mM KCl buffer.
Ten rats were divided into two-groups, and they were injected daily with PCA (8 mg/kg, i.p.) or saline for 3 consecutive days, respectively. The animals were sacrificed 5 days after the last injection and the frontal cortical membrane homogenates were prepared.

[4] = In vitro stability of radioiodinated ligand; assay type: physicochemical; conditions: in 50% ethanol for up to two months after radioiodination
[5] = Metabolite analysis of brain tissue; assay type: in vivo, rat; conditions: rats, 60 min post-injection
Method: Sixty minutes after an i.v. injection of 200-300 μCi of [^125I]IDAM into two male rats, the areas corresponding to the hypothalamus region were dissected individually. The tissues were then homogenized in 1.5 ml of 50 mM Tris buffer (pH 7.4) and the homogenates were extracted with ethyl acetate (3×1.5 ml) in the presence of the non-radioactive IDAM (100 μg). The extracted ethyl acetate layers were evaporated to near dryness and the purity of [^125I]IDAM in the condensed extracts was analyzed by HPLC (PRP-1 column; solvent: CH3CN/DMGA: 90/10; flow rate: 1 ml/min). Control samples were performed by adding 5-10 μCi of [^125I]IDAM to hypothalamus tissues followed by the same procedures used for the experimental samples to determine the extraction efficiency.

[6] = Biodistribution in rats after i.v. injection of radioactive tracer; assay type: in vivo, rat
Method: Three or four rats per group were used for each biodistribution study. While under ether anesthesia, 0.2 ml of a saline solution containing 10 μCi of radioactive tracer was injected into the femoral vein. The rats were sacrificed at the time indicated by cardiac excision while under ether anesthesia. Organs of interest were removed and weighed, and the radioactivity was counted using a Packard automatic gamma counter (Model 5000). The percent dose per organ was calculated by a comparison of the tissue counts to counts of 1% of the initial dose (100 times diluted aliquots of the injected material) measured at the same time.
Regional brain distribution in rats was measured after an i.v. injection of the radioactive tracer. Samples from different brain regions [cortex (CX), striatum (ST), hippocampus (HP), cerebellum (CB) and hypothalamus (HY)] were dissected, weighed and counted. The percentage dose/g of each sample was calculated by comparing sample counts with the counts of the diluted initial dose described above. The ratio of specific binding (SB) in each region was obtained by dividing the difference of each region from the cerebellum (percentage dose/g) with that of the cerebellum [(region-CB)/CB].

[7] = PCA-lesioned rats, frontal cortical membranes
[8] = control rats, frontal cortical membranes

T1 sequence (P31652 whole entry): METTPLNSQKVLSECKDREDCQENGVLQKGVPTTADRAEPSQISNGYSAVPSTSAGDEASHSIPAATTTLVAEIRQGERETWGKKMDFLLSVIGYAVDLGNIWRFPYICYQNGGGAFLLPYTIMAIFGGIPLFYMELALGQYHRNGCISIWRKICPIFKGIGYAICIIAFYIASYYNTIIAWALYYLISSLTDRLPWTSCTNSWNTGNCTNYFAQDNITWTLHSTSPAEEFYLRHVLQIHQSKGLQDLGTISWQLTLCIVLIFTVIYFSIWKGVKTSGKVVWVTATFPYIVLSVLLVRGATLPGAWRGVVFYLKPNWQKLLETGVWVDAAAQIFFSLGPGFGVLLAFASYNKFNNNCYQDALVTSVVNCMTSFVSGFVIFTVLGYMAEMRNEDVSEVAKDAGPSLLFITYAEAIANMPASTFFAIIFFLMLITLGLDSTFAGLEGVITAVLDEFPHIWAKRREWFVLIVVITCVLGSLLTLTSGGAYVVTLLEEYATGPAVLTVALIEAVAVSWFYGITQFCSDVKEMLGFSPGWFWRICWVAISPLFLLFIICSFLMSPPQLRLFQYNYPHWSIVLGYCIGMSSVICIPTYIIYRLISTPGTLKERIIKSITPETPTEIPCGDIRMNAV

Compound: CN(C)Cc1ccccc1Sc1ccc([125I])cc1CO [[^125I]IDAM]
- partition coefficient (PC) [1]: 473
- logD ([1]; read-out: partition coefficient (PC) (converted)): 2.67
- nonspecific binding (non-paroxetine blockable) ([2]; HP): more than 70%
- percentage of specific binding (paroxetine blockable) ([2]; hippocampal regions and several cortical regions): less than 30%
- percentage of specific binding (paroxetine blockable) ([2]; interperduncular nucleus, median raphe and dorsomedial hypothalamus): more than 95%
- Bmax of [125I]IDAM binding [3, 7]: 20±7 fmol/mg protein
- Kd [3, 7]: 0.05 ± 0.15 nM
- Kd of [125I]IDAM binding [3, 7]: no significant change
- loss of [125I]IDAM binding to rat cortical membranes ([3]; after destruction of serotonergic neurons by PCA): 90%
- nonspecific binding ([3]; at Kd value, rat frontal cortical membranes): < 5%
- Bmax of [125I]IDAM binding [3, 8]: 272±30 fmol/mg protein
- Kd [3, 8]: 0.25 nM and 0.2 nM
- stability: radiochemical purity determined by HPLC [4]: > 95%
- unmetabolized tracer recovered from hypothalamus region [5]: > 95%
- half-time of clearance from the brain regions [6]: less than 60 min
- % dose/g CEREBELLUM ([6]; 2 min): 1.377 ± 0.479 % dose/g
- % dose/g CORTEX ([6]; 2 min): 2.353 ± 0.444 % dose/g
- % dose/g HIPPOCAMPUS ([6]; 2 min): 1.485 ± 0.263 % dose/g
- % dose/g HYPOTHALAMUS ([6]; 2 min): 1.782 ± 0.412 % dose/g
- % dose/g STRIATUM ([6]; 2 min): 1.377 ± 0.344 % dose/g
- % dose/organ BLOOD ([6]; 2 min): 7.619 ± 0.41 % dose/organ
- % dose/organ BRAIN ([6]; 2 min): 2.44 % dose/organ and 2.44 ± 0.34 % dose/organ
- % dose/organ HEART ([6]; 2 min): 1.303 ± 0.10 % dose/organ
- % dose/organ KIDNEY ([6]; 2 min): 6.54 ± 0.26 % dose/organ
- % dose/organ LIVER ([6]; 2 min): 6.46 ± 1.18 % dose/organ
- % dose/organ LUNG ([6]; 2 min): 10.42 ± 1.36 % dose/organ
- % dose/organ MUSCLE ([6]; 2 min): 19.06 ± 8.51 % dose/organ
- % dose/organ SKIN ([6]; 2 min): 3.27 ± 0.48 % dose/organ
- % dose/organ SPLEEN ([6]; 2 min): 0.31 ± 0.08 % dose/organ
- SB: specific binding = (region-CB)/CB, CORTEX ([6]; 2 min): 0.709
- SB: specific binding = (region-CB)/CB, HIPPOCAMPUS ([6]; 2 min): 0.079
- SB: specific binding = (region-CB)/CB, HYPOTHALAMUS ([6]; 2 min): 0.294
- SB: specific binding = (region-CB)/CB, STRIATUM ([6]; 2 min): 0.000
- total radioactivity recovered from the major organs ([6]; 2 min post-injection): less than 60 % of total injected dose
- % dose/g CEREBELLUM ([6]; 30 min): 0.416 ± 0.045 % dose/g
- % dose/g CORTEX ([6]; 30 min): 0.820 ± .0108 % dose/g
- % dose/g HIPPOCAMPUS ([6]; 30 min): 0.832 ± 0.048 % dose/g
- % dose/g HYPOTHALAMUS ([6]; 30 min): 0.918 ± 0.113 % dose/g
- % dose/g STRIATUM ([6]; 30 min): 0.875 ± 0.086 % dose/g
- % dose/organ BLOOD ([6]; 30 min): 7.63 ± 1.03 % dose/organ
- % dose/organ BRAIN ([6]; 30 min): 1.174 ± 0.062 % dose/organ
- % dose/organ HEART ([6]; 30 min): 0.27 ± 0.02 % dose/organ
- % dose/organ KIDNEY ([6]; 30 min): 3.48 ± 0.643 % dose/organ
- % dose/organ LIVER ([6]; 30 min): 4.709 ± 0.347 % dose/organ
- % dose/organ LUNG ([6]; 30 min): 1.78 ± 0.08 % dose/organ
- % dose/organ MUSCLE ([6]; 30 min): 16.27 ± 0.82 % dose/organ
- % dose/organ SKIN ([6]; 30 min): 6.121 ± 0.536 % dose/organ
- % dose/organ SPLEEN ([6]; 30 min): 0.279 ± 0.026 % dose/organ
- SB: specific binding = (region-CB)/CB, CORTEX ([6]; 30 min): 0.972
- SB: specific binding = (region-CB)/CB, HIPPOCAMPUS ([6]; 30 min): 1.002
- SB: specific binding = (region-CB)/CB, HYPOTHALAMUS ([6]; 30 min): 1.208
- SB: specific binding = (region-CB)/CB, STRIATUM ([6]; 30 min): 1.104
- % dose/g CEREBELLUM ([6]; 60 min): 0.153 ± 0.019 % dose/g
- % dose/g CORTEX ([6]; 60 min): 0.310 ± 0.060 % dose/g
- % dose/g HIPPOCAMPUS ([6]; 60 min): 0.355 ± 0.016 % dose/g
- % dose/g HYPOTHALAMUS ([6]; 60 min): 0.422 ± 0.066 % dose/g
- % dose/g STRIATUM ([6]; 60 min): 0.257 ± 0.042 % dose/g
- % dose/organ BLOOD ([6]; 60 min): 6.380 ± 0.729 % dose/organ
- % dose/organ BRAIN ([6]; 60 min): 0.50 % dose/organ and 0.503 ± 0.027 % dose/organ
- % dose/organ HEART ([6]; 60 min): 0.187 ± 0.008 % dose/organ
- % dose/organ KIDNEY ([6]; 60 min): 1.993 ± 0.351 % dose/organ
- % dose/organ LIVER ([6]; 60 min): 4.120 ± 0.766 % dose/organ
- % dose/organ LUNG ([6]; 60 min): 0.931 ± 0.086 % dose/organ
- % dose/organ MUSCLE ([6]; 60 min): 6.775 ± 0.145 % dose/organ
- % dose/organ SKIN ([6]; 60 min): 7.538 ± 0.127 % dose/organ
- % dose/organ SPLEEN ([6]; 60 min): 0.167 ± 0.027 % dose/organ
- SB: specific binding = (region-CB)/CB, CORTEX ([6]; 60 min): 1.024
- SB: specific binding = (region-CB)/CB, HIPPOCAMPUS ([6]; 60 min): 1.313
- SB: specific binding = (region-CB)/CB, HYPOTHALAMUS ([6]; 60 min): 1.75
- SB: specific binding = (region-CB)/CB, STRIATUM ([6]; 60 min): 0.673
- % dose/g CEREBELLUM ([6]; 120 min): 0.053 ± 0.005 % dose/g
- % dose/g CORTEX ([6]; 120 min): 0.89 ± 0.018 % dose/g
- % dose/g HIPPOCAMPUS ([6]; 120 min): 0.134 ± 0.011 % dose/g
- % dose/g HYPOTHALAMUS ([6]; 120 min): 0.142 ± 0.027 % dose/g
- % dose/g STRIATUM ([6]; 120 min): 0.105 ± 0.052 % dose/g
- % dose/organ BLOOD ([6]; 120 min): 4.160 ± 0.150 % dose/organ
- % dose/organ BRAIN ([6]; 120 min): 0.17 % dose/organ and 0.168 ± 0.029 % dose/organ
- % dose/organ HEART ([6]; 120 min): 0.114 ± 0.023 % dose/organ
- % dose/organ KIDNEY ([6]; 120 min): 0.832 ± 0.071 % dose/organ
- % dose/organ LIVER ([6]; 120 min): 2.722 ± 0.308 % dose/organ
- % dose/organ LUNG ([6]; 120 min): 0.422 ± 0.055 % dose/organ
- % dose/organ MUSCLE ([6]; 120 min): 4.714 ± 0.977 % dose/organ
- % dose/organ SKIN ([6]; 120 min): 6.716 ± 1.304 % dose/organ
- % dose/organ SPLEEN ([6]; 120 min): 0.066 ± 0.008 % dose/organ
- SB: specific binding = (region-CB)/CB, CORTEX ([6]; 120 min): 0.674
- SB: specific binding = (region-CB)/CB, HIPPOCAMPUS ([6]; 120 min): 1.524
- SB: specific binding = (region-CB)/CB, HYPOTHALAMUS ([6]; 120 min): 1.679
- SB: specific binding = (region-CB)/CB, STRIATUM ([6]; 120 min): 0.967
- % dose/g CEREBELLUM ([6]; 240 min): 0.012 ± 0.000 % dose/g
- % dose/g CORTEX ([6]; 240 min): 0.017 ± 0.003 % dose/g
- % dose/g HIPPOCAMPUS ([6]; 240 min): 0.020 ± 0.003 % dose/g
- % dose/g HYPOTHALAMUS ([6]; 240 min): 0.022 ± 0.011 % dose/g
- % dose/g STRIATUM ([6]; 240 min): 0.018 ± 0.002 % dose/g
- % dose/organ BLOOD ([6]; 240 min): 2.246 ± 0.303 % dose/organ
- % dose/organ BRAIN ([6]; 240 min): 0.033 ± 0.002 % dose/organ
- % dose/organ HEART ([6]; 240 min): 0.048 ± 0.004 % dose/organ
- % dose/organ KIDNEY ([6]; 240 min): 0.488 ± 0.065 % dose/organ
- % dose/organ LIVER ([6]; 240 min): 1.469 ± 0.189 % dose/organ
- % dose/organ LUNG ([6]; 240 min): 0.220 ± 0.018 % dose/organ
- % dose/organ MUSCLE ([6]; 240 min): 2.818 ± 0.208 % dose/organ
- % dose/organ SKIN ([6]; 240 min): 3.851 ± 0.073 % dose/organ
- % dose/organ SPLEEN ([6]; 240 min): 0.024 ± 0.004 % dose/organ
- SB: specific binding = (region-CB)/CB, CORTEX ([6]; 240 min): 0.475
- SB: specific binding = (region-CB)/CB, HIPPOCAMPUS ([6]; 240 min): 0.705
- SB: specific binding = (region-CB)/CB, HYPOTHALAMUS ([6]; 240 min): 0.865
- SB: specific binding = (region-CB)/CB, STRIATUM ([6]; 240 min): 0.508
